Measurements as given in ChEMBL document CHEMBL3507680, “University of Dundee, Gates Library screen for HepG2 cell viability”.

Test: Human HepG2 cell viability assay in 384 well format
Format: toxicity, cell-based
Design: dose 125 nL, time 70.5 hour; cytotoxicity at 70.5 h: concentration not given beside the values
Details: HepG2 cells, read-out: Inhibition

| SMILES | cytotoxicity at 70.5 h [%] |
| --- | --- |
| COCc1nc(N(C)C)ncc1C(=O)OC | -4.46 |
| CC1(C)Cc2ccccc2-c2nc(NCCCO)[nH]c(=O)c21 | -3.41 |
| O=c1[nH]c(NCCO)nc2c1C1(CCCCC1)Cc1ccccc1-2 | -1.9 |
| CCC(C)n1c(SCC(=O)N2CCOCC2)nc2cc(C)[nH]c2c1=O (configuration not stated) | 13.3 |
| Cc1cc2nc(SCC(=O)N3CCOCC3)n(CCC(C)C)c(=O)c2[nH]1 | -0.683 |
| O=C(O)c1nnn(-c2cccc(C(F)(F)F)c2)c1-c1ccncc1 | 5.64 |
| CCc1cccc(-n2nnc(C(=O)O)c2-c2ccncc2)c1 | -13.1 |
| O=C(O)c1nnn(-c2ccc(Cl)c(C(F)(F)F)c2)c1-c1ccncc1 | -26.7 |
| CN1CCc2c(C#N)c(NCCCO)n3cnnc3c2C1 | -20.7 |
| CN1CCc2c(C#N)c(NCc3ccncc3)n3cnnc3c2C1 | -14.7 |
| Cc1cc(NC(=O)CC2(Cn3cnnn3)CCCCC2)nn1C | -23.2 |
| Cc1ccc(C)c(NC(=O)Cn2cc(I)cn2)c1 | -13.2 |
| Cc1ccc(NC(=O)Cn2cc(I)cn2)cc1C | 20.3 |
| COc1cccc2c1ccn2CCC(=O)N1CCC(C(=O)O)CC1 | -5.23 |
| CC(C)NC(=O)CC1(Cn2cnnn2)CCCCC1 | -22.1 |
| O=C(COc1coc(CN2CCCCC2)cc1=O)c1ccccc1 | -18.6 |
| COc1ccc(C(=O)COc2coc(CN3CCSCC3)cc2=O)cc1 | -19.9 |
| O=C(O)C1CCCN(C(=O)CCn2ccc3c(Cl)cccc32)C1 (configuration not stated) | -17.2 |
| CCCOc1cccc(C(=O)Oc2cc(=O)n3cccc(C)c3n2)c1 | -12.8 |
| Cc1cccn2c(=O)cc(OC(=O)c3ccccc3Cl)nc12 | -10.1 |
| COCCNC(=O)Cn1c(-c2cccc(Cl)c2)nc(C)c(CCO)c1=O | 0.393 |
| CC/N=c1\nc(NCC)nc2n1C(O)(Nc1cccc(Cl)c1Cl)CS2 (configuration not stated) | -1.29 |
| COCCNC(=O)Cn1c(-c2ccc(F)cc2)nc(C)c(CCO)c1=O | -2.18 |
| CCOc1cccc2c1OCC(=O)N(c1ccc(N(C)C)cc1)C2 | -8.85 |

| SMILES | cytotoxicity at 70.5 h [%] |
| --- | --- |
| O=c1[nH]c2c(-c3ccccn3)nsc2c(=O)n1C1CCCCC1 | -5.9 |
| O=c1[nH]nc2c(S(=O)(=O)N3CCCC3)cccn12 | -4.02 |
| COCCn1ccc2c(cnc3nc(SC)nn32)c1=O | -4.98 |
| c1cc(-c2nnc3sc(CCN4CCCC4)nn23)ccn1 | -9.13 |
| O=C(c1cc(Br)ccc1-n1cnnn1)N1CCCC1 | -3.68 |
| O=C(CCc1ccc2c(c1)CCO2)Nc1nnn[nH]1 | -6.65 |
| CC(O)CNc1c(NCc2ccco2)c(=O)c1=O (configuration not stated) | -9.21 |
| C[C@H](NC(=O)OC(C)(C)C)c1nnc(S(=O)(=O)Cc2cccc(F)c2)o1 | -6.88 |
| O=C(c1cc(Br)ccc1-n1cnnn1)N1CCCCC1 | 6.11 |
| O=C(O)Cn1nc(-c2ccccc2F)ccc1=O | 2.69 |
| NC(=O)Cn1nc(-c2ccccc2F)ccc1=O | -9.13 |
| CCOc1cc(C)c(-c2cc(N)[nH]n2)cc1OCC | -8.56 |
| CC/N=c1\nc(NCC)nc2n1C(O)(Nc1cc(C)ccc1C)CS2 (configuration not stated) | -10.1 |
| CCOc1ccc(CNCCCn2ccnc2)cc1OC | -13.2 |
| Cc1nc(Nc2ccc(Cl)cn2)sc1C(=O)NCCCN1CCCCC1 | -3.37 |
| O=C(O)c1nnn(Cc2cccc(C(F)(F)F)c2)c1-c1ccccn1 | -7.66 |
| O=C(O)c1nnn(Cc2cccc(C(F)(F)F)c2)c1-c1ccncc1 | -8.89 |
| O=C(c1ccc(-c2ccc(O)nc2)s1)N1CCCCC1 | -8.32 |
| Cn1ncc(C(=O)N2CCN(C(=O)c3ccco3)CC2)c1Cl | -13.4 |
| Cc1ccc2cnn(CCC(=O)Nc3nc(C)c(C)s3)c2c1 | 4.56 |
| COCc1nc(N(C)C)ncc1C(=O)Nc1cc(C)cc(C)c1 | -6.56 |
| Cc1ccc(CNc2cc(C(=O)N3CCOCC3)nc(C)n2)cc1 | -9.84 |
| Cc1nc(NCCc2ccccc2)cc(C(=O)N2CCOCC2)n1 | 5.2 |
| CCOC(=O)C1CCN(c2cc(C(=O)N3CCOCC3)nc(C)n2)CC1 | 0.918 |

| SMILES | cytotoxicity at 70.5 h [%] |
| --- | --- |
| CCC(=O)Nc1nnc(CCOc2ccc(OC)cc2)s1 | 3.07 |
| CCn1c(SCC(=O)O)nnc1C(C)NC(=O)c1ccc(Cl)cc1 (configuration not stated) | -8.19 |
| CC(NC(=O)c1ccc(Cl)cc1)c1nnc(SCC(=O)O)n1C (configuration not stated) | 18.7 |
| CCOC(=O)C1CCN(c2cc(C(=O)N3CCCCC3)nc(C)n2)CC1 | -8.82 |
| O=C(O)c1ccnc2c(Br)cccc12 | -3.81 |
| CCn1ccc(NC(=O)CN2C(=O)CC(C)(C)c3ccccc32)n1 | -8.59 |
| COCCNC(=O)c1nnn(Cc2ccccc2)c1OC | -2.5 |
| COc1c(C(=O)NCC2CCCO2)nnn1Cc1ccccc1 (configuration not stated) | -3.19 |
| COc1c(C(=O)NCC(C)C)nnn1Cc1ccccc1 | -4.1 |
| CCCNC(=O)c1cc(C(C)C)nc(N2CCCC2)n1 | -8.39 |
| Cc1cccc(NC(=O)c2cccc(OCc3nnnn3C)c2)n1 | 18.7 |
| CC1CCN(C(=O)C2CC(=O)N(c3cnn(C(C)C)c3)C2)CC1 (configuration not stated) | -13.2 |
| CC(C)n1cc(N2CC(C(=O)N3CCC(C(N)=O)CC3)CC2=O)cn1 (configuration not stated) | -11.7 |
| COc1cc(-c2n[nH]c(CO)n2)cc(OC)c1OC | 29.6 |
| CC(=O)NCCOc1c(Cl)cccc1Cl | 28.8 |
| Cc1ccc2c(c1)c(C)cc(=O)n2CCCN | -4.61 |
| COCCCNC(=O)c1cc(C(C)C)nc(N2CCCC2)n1 | -10.1 |
| COCCNC(=O)c1cc(C(C)C)nc(N2CCCC2)n1 | -9.32 |
| CC(C)n1cc(S(=O)(=O)N2CCCCC2)cn1 | 9.02 |
| CCn1c(NCc2ccco2)nc2c(C)nn(C)c2c1=O | 31.6 |
| CCn1cc(CN(C)S(=O)(=O)c2cc(Cl)ccc2Cl)cn1 | 22.9 |
| CCOCCCNC(=O)c1nn(CC)cc1Cl | 21.2 |
| CCOCCCNC(=O)c1cn(CC)nc1C | -8.03 |
| Cc1ccc(NC(=O)c2n[nH]c(-n3cnnc3)n2)cc1C | 28.4 |

| SMILES | cytotoxicity at 70.5 h [%] |
| --- | --- |
| Cc1ccc(C)c(NC(=O)c2n[nH]c(-n3cnnc3)n2)c1 | -0.779 |
| Cc1nn(C)c2c(N3CCN(C(=O)c4ccccc4)CC3)ncnc12 | -2.93 |
| CSCc1cccc(S(=O)(=O)N2CCSCC2)c1 | -4.49 |
| Cc1nn(C)c2cn(C(C)C(=O)NCc3cccnc3)nc12 (configuration not stated) | -1.5 |
| Cc1nc(N2CCCCC2)ncc1-c1cc(O)[nH]n1 | -3.47 |
| CCc1nc(NCC(=O)N2CCOCC2)c2c(n1)c(C)nn2CC | -9.61 |
| CCC(=O)Nc1nnc(CCCOc2ccccc2)s1 | -13.1 |
| Cc1cccc2c1cnn2CCC(=O)NCC(=O)N(C)C | -9.91 |
| CCNC(=O)c1nnc2ccc(N3CCOCC3)cc2n1 | 12.6 |
| CCN(CC)C(=O)c1nnc2ccc(N3CCOCC3)cc2n1 | 26.5 |
| COCc1nc(N(C)C)ncc1C(=O)Nc1ccn(C)n1 | 5.17 |
| O=C1CC(c2ccccc2)c2snc(C(=O)O)c2N1 (configuration not stated) | 24.7 |
| CCN1C(=O)C(C)(C)c2cc(NC(=O)c3ccco3)ccc21 | -7.99 |
| CCn1ccc(C(=O)NCCCN2CCOCC2)n1 | -11.6 |
| Cc1cc(C)n(CCC(=O)N2CCC(c3nc(C(C)C)no3)CC2)n1 | -5.07 |
| CC(C)C(=O)NCCCn1ncc2c(Cl)cccc21 | -0.542 |
| Nc1ncc2c(n1)CN(C1CCCC1)C2=O | -7.28 |
| CC1(C)CC(N2Cc3nc(N4CCOCC4)ncc3C2=O)CC(C)(C)N1 | 13.3 |
| Cc1cccc(Cn2ccc(NS(C)(=O)=O)n2)c1 | -4.99 |
| Cc1ccc(Cn2ccc(NS(C)(=O)=O)n2)cc1 | -10.8 |
| O=C(COCc1nc(-c2ccncc2)no1)N1CCCCCC1 | -5.87 |
| COc1ccc(Nc2nc3c(C)nn(C)c3c(=O)n2C)c(OC)c1 | -18.2 |
| CCOc1ccccc1Nc1nc2c(C)nn(C)c2c(=O)n1C | 8.71 |
| CCN1CCN(c2nc(C(C)C)nc3c(C)nn(CC)c23)CC1 | 13.6 |

| SMILES | cytotoxicity at 70.5 h [%] |
| --- | --- |
| CCCc1nc(N2CCN(CC)CC2)c2c(n1)c(C)nn2CC | -5.26 |
| CCn1cc(N)c(C(=O)NCc2cnn(C)c2)n1 | -7.78 |
| CNc1cc(C)nc(C2CN(Cc3cncs3)CCO2)c1 (configuration not stated) | -11.5 |
| Cc1nc(C2CCCN2C(=O)CCc2ccccc2)ncc1C(N)=O (configuration not stated) | -11.8 |
| O=C(c1cnco1)N1C[C@@H](O)[C@H](Oc2cccc(F)c2)C1 | 14.4 |
| O=C(O)CN1CCOCC(Cc2ccc(Cl)cc2)C1 (configuration not stated) | -7.85 |
| Cc1ccnc(C2CCCN2C(=O)c2cnccn2)n1 (configuration not stated) | -9.28 |
| CNC(=O)C1Cn2ccnc2C2(CCN(C(=O)CC3CCCC3)CC2)O1 (configuration not stated) | -1.06 |
| O=C(c1cnccn1)N1CCCC2(CCN(Cc3ccc(F)cc3)C2)C1 (configuration not stated) | -4.76 |
| CS(=O)(=O)N1CC[C@]2(C[C@H](Oc3ccccn3)CO2)C1 | -7.19 |
| CNC(=O)C1Cn2ccnc2C2(CCN(C(=O)c3ccoc3C)CC2)O1 (configuration not stated) | -5.12 |
| Cc1noc([C@H]2C[C@@H]3CCN(CC4CCOCC4)C[C@H]3O2)n1 | -1.09 |
| Cc1ccoc1C(=O)N1C[C@@H]2COC[C@]2(COCc2cccnc2)C1 | -0.687 |
| O=C(c1ccccc1F)N1C[C@@H]2COC[C@]2(COCc2cccnc2)C1 | -1.45 |
| O=C(Cc1cccs1)N1C[C@@H]2COC[C@]2(COCc2cccnc2)C1 | -5.53 |
| Cn1cccc1CN1CCC2(CCCN(C(=O)c3cccnc3)C2)CC1 | -2.44 |
| O=C1N(c2ccsc2)CCC12CCCN(Cc1cccnc1)C2 (configuration not stated) | -7.79 |
| Cc1ccc(N2CC3(COCCN(Cc4ccccn4)C3)OCC2=O)s1 (configuration not stated) | -1.36 |
| Cc1ccc(N2CC3(COCCN(Cc4ccncc4)C3)OCC2=O)s1 (configuration not stated) | 3.84 |
| COc1ccc(C(=O)CN(C2=NCCCCC2)c2ccccc2)cc1 | -25.8 |
| O=C(CN(C1=NCCCC1)c1ccccc1)c1ccc(OC(F)F)cc1 | -4.12 |
